# Laboratory results: patent US11008313B2, “Substituted 1-methyl-1,2,3,4-tetrahydroisoquinoline molecules as PCSK9 allosteric binders” (Merck Sharp & Dohme Corp., priority 2016, dated 2021)
# pIC50: −log10 of the molar value.
# Legend:
# PCSK9 [1] = biological target: T1, PCSK9 (Homo sapiens, UniProt Q8NBP7); test: Differential scanning calorimetry (DSC) assay, direct binding / thermal stabilization of PCSK9; conditions: Tm(with compound)−Tm(no compound); 2 μM PCSK9, 300 μM test compound
# Experimental: Differential scanning calorimetry (DSC) was used as a biophysical method to confirm direct binding to PCSK9. A solution containing 2 μM PCSK9 with or without 300 μM test compound in 25 mM HEPES (pH 7.5)/150 mM NaCl/1 mM CaCl2/3.75% DMSO was transferred to the sample cell of the DSC instrument, while buffer alone was placed in the reference cell. Both cells were heated at a constant rate (200° C./hr) from 20-80° C. while recording the excess heat capacity of the sample cell relative to the reference cell. Each thermogram was analyzed to provide the melting temperature (Tm) of the protein.
# The higher the temperature shift generally, the higher the affinity.
# PCSK9 [2] = biological target: T1, PCSK9; test: Fluorescence polarization competition binding assay (probe: compound of Example 57); conditions: 2 μM PCSK9, 50 nM compound of Example 57 as probe, overnight incubation; read-out: FP IC
# Experimental: Relative compound affinities were determined using a competition binding assay with a fluorescence polarization format. Solution (49 μL) containing 2 μM PCSK9 and 50 nM compound of Example 57 in 20 mM HEPES (pH 7.5)/150 mM NaCl/1 mM CaCl2/0.005% P-20 was dispensed to wells of a 384-well black non-binding microplate before the addition of 1 μL of test compound or DMSO. After mixing, the plate was centrifuged and sealed for overnight incubation in the dark. The anisotropy signal was read using a fluorescence polarization protocol on a Perkin-Elmer Envision plate reader. The % inhibition was determined relative to the window defined by the DMSO control wells and wells containing 50 nM probe in the absence of PCSK9.
# T1 sequence (Q8NBP7 153-692): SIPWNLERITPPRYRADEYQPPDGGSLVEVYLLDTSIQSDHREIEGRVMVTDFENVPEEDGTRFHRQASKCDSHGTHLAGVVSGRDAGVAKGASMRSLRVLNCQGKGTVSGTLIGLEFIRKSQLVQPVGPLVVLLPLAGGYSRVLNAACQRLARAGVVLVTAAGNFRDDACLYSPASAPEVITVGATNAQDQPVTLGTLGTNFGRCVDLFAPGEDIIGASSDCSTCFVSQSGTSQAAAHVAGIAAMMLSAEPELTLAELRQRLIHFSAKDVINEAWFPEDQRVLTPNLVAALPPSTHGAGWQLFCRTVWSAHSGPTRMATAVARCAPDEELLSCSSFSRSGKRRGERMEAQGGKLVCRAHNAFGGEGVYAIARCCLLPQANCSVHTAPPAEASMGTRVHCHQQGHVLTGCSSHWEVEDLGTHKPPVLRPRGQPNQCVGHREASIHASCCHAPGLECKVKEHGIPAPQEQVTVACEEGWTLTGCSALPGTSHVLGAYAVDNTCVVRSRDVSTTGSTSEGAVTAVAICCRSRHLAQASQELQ
ΔTm at 300 µM (PCSK9 [1]),pIC50 (PCSK9 [2]),DSC ΔTm (PCSK9 [1]),SMILES
6.91 °C,6.39,–,"COc1cc2c(cc1Oc1ccc(-c3ccc(/C=C/C(=O)O)cc3)c(F)c1)[C@@](C)(CC(=O)Nc1nccs1)NCC2 [Example 28, (RE)-3-(2′-fluoro-4′-((6-methoxy-1-methyl-1-(2-oxo-2-(thiazol-2-ylamino)ethyl)-1,2,3,4-tetrahydroisoquinolin-7-yl)oxy)-[1,1′-biphenyl]-4-yl)acrylic acid]"
5.37 °C,6.38,–,"COc1cc2c(cc1Oc1ccc(-c3ccc(C(=O)O)cc3F)cc1)[C@@](C)(CC(=O)Nc1nccs1)NCC2 [Example 29, (R)-2-fluoro-4′-((6-methoxy-1-methyl-1-(2-oxo-2-(thiazol-2-ylamino)ethyl)-1,2,3,4-tetrahydroisoquinolin-7-yl)oxy)-[1,1′-biphenyl]-4-carboxylic acid]"
5.48 °C,6.35,–,"COc1cc2c(cc1Oc1ccc(-c3ccc(CCC(=O)O)cc3)cc1)[C@@](C)(CC(=O)Nc1nccs1)NCC2 [Example 30, (R)-3-(4′-((6-methoxy-1-methyl-1-(2-oxo-2-(thiazol-2-ylamino)ethyl)-1,2,3,4-tetrahydroisoquinolin-7-yl)oxy)-[1,1′-biphenyl]-4-yl)propanoic acid]"
5.84 °C,6.28,–,"COc1cc2c(cc1Oc1ccc(-c3ccc(CC(=O)O)cc3)c(F)c1)[C@@](C)(CC(=O)Nc1nccs1)NCC2 [Example 31, (R)-2-(2′-fluoro-4′-((6-methoxy-1-methyl-1-(2-oxo-2-(thiazol-2-ylamino)ethyl)-1,2,3,4-tetrahydroisoquinolin-7-yl)oxy)-[1,1′-biphenyl]-4-yl)acetic acid]"
6.18 °C,6.27,–,"COc1cc2c(cc1Oc1ccc(-c3ccc(CCC(=O)O)cc3)c(F)c1)[C@@](C)(CC(=O)Nc1nccs1)NCC2 [Example 32, (R)-3-(2′-fluoro-4′-((6-methoxy-1-methyl-1-(2-oxo-2-(thiazol-2-ylamino)ethyl)-1,2,3,4-tetrahydroisoquinolin-7-yl)oxy)-[1,1′-biphenyl]-4-yl)propanoic acid]"
5.2 °C,6.25,–,"COc1cc2c(cc1Oc1ccc(-c3ccc(C(=O)O)cc3F)nc1)[C@@](C)(CC(=O)Nc1nccs1)NCC2 [Example 33, (R)-3-fluoro-4-(5-((6-methoxy-1-methyl-1-(2-oxo-2-(thiazol-2-ylamino)ethyl)-1,2,3,4-tetrahydroisoquinolin-7-yl)oxy)pyridin-2-yl)benzoic acid]"
–,6.18,5.5 °C,"COc1cc2c(cc1Oc1ccc(-c3ccc(C(=O)O)cc3)cc1)[C@@](C)(CC(=O)Nc1nccs1)NCC2 [Example 34, (R)-4′-((6-methoxy-1-methyl-1-(2-oxo-2-(thiazol-2-ylamino)ethyl)-l,2,3,4-tetrahydroisoquinolin-7-yl)oxy)-[1,1′-biphenyl]-4-carboxylic acid]"
5.29 °C,6.17,–,"COc1cc2c(cc1Oc1ccc(-c3ccc(C(=O)O)cc3)nc1)[C@@](C)(CC(=O)Nc1nccs1)NCC2 [Example 35, (R)-4-(5-((6-methoxy-1-methyl-1-(2-oxo-2-(thiazol-2-ylamino)ethyl)-1,2,3,4-tetrahydroisoquinolin-7-yl)oxy)pyridin-2-yl)benzoic acid]"
5.56 °C,6.12,–,"COc1cc2c(cc1Oc1ccc(-c3ccc(CC(=O)O)cc3)cc1)[C@@](C)(CC(=O)Nc1nccs1)NCC2 [Example 36, (R)-2-(4′-((6-methoxy-1-methyl-1-(2-oxo-2-(thiazol-2-ylamino)ethyl)-1,2,3,4-tetrahydroisoquinolin-7-yl)oxy)-[1,1′-biphenyl]-4-yl)acetic acid]"
5.63 °C,6.21,–,"C[C@]1(CC(=O)Nc2nccs2)NCCc2cc(OCCn3cc(C(N)CO)nn3)c(Oc3ccc(C(=O)O)c(F)c3)cc21 (stereo partly drawn) [Example 37, 4-(((1R)-6-(2-(4-(1-amino-2-hydroxyethyl)-1H-1,2,3-triazol-1-yl)ethoxy)-1-methyl-1-(2-oxo-2-(thiazol-2-ylamino)ethyl)-1,2,3,4-tetrahydroisoquinolin-7-yl)oxy)-2-fluorobenzoic acid]"
